Test results published in US20100244818A1, “APPARATUS AND METHOD FOR TRANSDUCING AN IN VITRO OR MAMMALIAN SYSTEM WITH A LOW-FREQUENCY SIGNAL” (priority 2006, published 2010).

Columns and labels:
[1] = the compound itself; not examined in the study; cited from earlier work
tubulin = tubulin aggregation (polymerization) assay, OD 340 nm; assay type: biochemical
Description: This assay has been described, for example, in Shelanski, M. L., Gaskin, F. and Cantor, C. R. (1973). Microtubule assembly in the absence of added nucleotides. Proc. Natl. Acad. Sci. U.S.A. 70, 765-768; and Lee, J. C. and Timasheff, S. N. (1977). In vitro reconstitution of calf brain microtubules: effects of solution variable. Biochemistry, 16, 1754-1762.
The assay protocol was designed for performing a single assay in a cuvette using a spectrophotometer set at 340 nm in a kinetic mode. HTS-Tubulin was purchased from Cytoskeleton, Inc. and is supplied in multiple vials as lyophilized protein. […]
The tubulin-assembly reaction was carried out by exposing the tubulin in GPEM buffer, at a concentration of 1.5 mg/ml to the following polymerization conditions: (i) a buffer (control), (ii) tubulin alone (2nd control); (iii) taxol, added to a final concentration of 4 μM, and (iv) the M2(3) taxol signal from above, transduced over a 20 minute period at a transduction voltage calculated to produce an approximately 1.693294 mG magnetic field. Change in optical absorption at 340 nm was measured continuously for each sample, and the OD340 data was used to calculate a rate of tubulin polymerization (dA/minute at 340 nm) at each one minute interval during the transduction study.
The Vmax of the reaction was also calculated for each sample at the end of the 20 minute assay period. […]

Compound: CC(=O)O[C@H]1C(=O)[C@@]2(C)[C@H]([C@H](OC(=O)c3ccccc3)[C@]3(O)C[C@H](OC(=O)[C@H](O)[C@@H](NC(=O)c4ccccc4)c4ccccc4)C(C)=C1C3(C)C)[C@]1(OC(C)=O)CO[C@@H]1C[C@@H]2O [taxol]
- delivery to the brain [1]: poorly deliver to the brain
- rate of tubulin polymerization (dA/minute at 340 nm) (tubulin; at two minutes, taxol 4 μM, FIG. 16B): increased significantly
- Vmax (single composite, maximum rate of reaction over the entire assay) (tubulin; taxol at 4 μM, tubulin 1.5 mg/ml in GPEM buffer, end of 20 minute assay, FIG. 17): ~1.8
